Experimental data reported in PubChem BioAssay (NCI).
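Method: 48-hour compound exposure of cells in 96-well plates, five concentrations, linear interpolation of endpoints. TGI denotes the concentration required for complete inhibition of growth.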

How the values were obtained:
Test in all cases: inhibition of tumour cell growth, NCI panel, 48 h
DMS 273 small cell lung = tested on: DMS 273 small cell lung
RPMI-8226 leukemia = tested on: RPMI-8226 leukemia
HL-60(TB) leukemia = tested on: HL-60(TB) leukemia
HCT-116 colon = tested on: HCT-116 colon
K-562 leukemia = tested on: K-562 leukemia
KM20L2 colon = tested on: KM20L2 colon
MOLT-4 leukemia = tested on: MOLT-4 leukemia
HOP-92 NSCLC = tested on: HOP-92 NSCLC
UO-31 renal = tested on: UO-31 renal
HCT-15 colon = tested on: HCT-15 colon
M14 melanoma = tested on: M14 melanoma
SF-268 CNS = tested on: SF-268 CNS
TK-10 renal = tested on: TK-10 renal
SK-MEL-2 melanoma = tested on: SK-MEL-2 melanoma
SW-620 colon = tested on: SW-620 colon
UACC-62 melanoma = tested on: UACC-62 melanoma
SK-MEL-5 melanoma = tested on: SK-MEL-5 melanoma
U251 CNS = tested on: U251 CNS
NCI-H522 lung = tested on: NCI-H522 lung
XF 498 CNS = tested on: XF 498 CNS
RXF 393 renal = tested on: RXF 393 renal
OVCAR-8 ovarian = tested on: OVCAR-8 ovarian
A549 NSCLC = tested on: A549 NSCLC
DLD-1 colon = tested on: DLD-1 colon
IGROV1 ovarian = tested on: IGROV1 ovarian
HT29 colon = tested on: HT29 colon
KM12 colon = tested on: KM12 colon
SF-295 CNS = tested on: SF-295 CNS
LOX IMVI melanoma = tested on: LOX IMVI melanoma
COLO 205 colon = tested on: COLO 205 colon
M19-MEL melanoma = tested on: M19-MEL melanoma
HOP-18 NSCLC = tested on: HOP-18 NSCLC
NCI-H23 lung = tested on: NCI-H23 lung
OVCAR-3 ovarian = tested on: OVCAR-3 ovarian
OVCAR-4 ovarian = tested on: OVCAR-4 ovarian
SF-539 CNS = tested on: SF-539 CNS
SNB-75 CNS = tested on: SNB-75 CNS
HCC-2998 colon = tested on: HCC-2998 colon
EKVX NSCLC = tested on: EKVX NSCLC
786-0 renal = tested on: 786-0 renal
SK-OV-3 ovarian = tested on: SK-OV-3 ovarian
LXFL 529 NSCLC = tested on: LXFL 529 NSCLC
SK-MEL-28 melanoma = tested on: SK-MEL-28 melanoma
UACC-257 melanoma = tested on: UACC-257 melanoma
NCI-H460 lung = tested on: NCI-H460 lung
MALME-3M melanoma = tested on: MALME-3M melanoma
DMS 114 small cell lung = tested on: DMS 114 small cell lung
SNB-19 CNS = tested on: SNB-19 CNS
NCI-H226 lung = tested on: NCI-H226 lung
SN12C renal = tested on: SN12C renal
CCRF-CEM leukemia = tested on: CCRF-CEM leukemia
OVCAR-5 ovarian = tested on: OVCAR-5 ovarian
ACHN renal = tested on: ACHN renal
SNB-78 CNS = tested on: SNB-78 CNS
A498 renal = tested on: A498 renal
CAKI-1 renal = tested on: CAKI-1 renal
HOP-62 NSCLC = tested on: HOP-62 NSCLC
SR leukemia = tested on: SR leukemia

Measured: TGI

COc1c(C)cc2c(C(C)C)c(O)c(O)c(C=O)c2c1O
59.1 µM: DMS 273 small cell lung
90.2 µM: SNB-75 CNS
37.6 µM: SF-539 CNS
37.9 µM: DMS 114 small cell lung
47.8 µM: NCI-H23 lung
33.1 µM: SK-MEL-5 melanoma
56.1 µM: KM12 colon
63.9 µM: OVCAR-4 ovarian
75.1 µM: SK-MEL-28 melanoma
37.1 µM: SK-MEL-2 melanoma
64.4 µM: M14 melanoma
60.4 µM: NCI-H522 lung
45.4 µM: K-562 leukemia
36.3 µM: COLO 205 colon
47.1 µM: HT29 colon
83.8 µM: OVCAR-8 ovarian
58.3 µM: HL-60(TB) leukemia
86 µM: SF-295 CNS | OVCAR-5 ovarian
49.5 µM: OVCAR-3 ovarian
81.8 µM: M19-MEL melanoma
75.8 µM: SN12C renal
57.2 µM: NCI-H226 lung
55.2 µM: RXF 393 renal
59.4 µM: UACC-257 melanoma
47.5 µM: UACC-62 melanoma
52 µM: HCT-116 colon
57.9 µM: U251 CNS
68.9 µM: LOX IMVI melanoma
38.7 µM: MALME-3M melanoma
95.1 µM: EKVX NSCLC
71.7 µM: HOP-18 NSCLC
88.1 µM: KM20L2 colon
93 µM: ACHN renal
not listed: A498 renal | CAKI-1 renal | HOP-62 NSCLC | SR leukemia
> 100 µM: all other assays above

CC(=O)OCC1OC(n2ccc(=O)[nH]c2=O)C(OC(C)=O)C(OC(C)=O)C1OC(C)=O (stereo not drawn)
not listed: HL-60(TB) leukemia | MOLT-4 leukemia | SF-539 CNS | SNB-78 CNS
> 100 µM: all other assays above
